Legend:
Experiment in all cases: relative viability (nuclei count vs DMSO), 5 days (fraction); higher = more cells survive
Salubrinal + Trametinib = compound: O=C(/C=C/c1ccccc1)NC(NC(=S)Nc1cccc2cccnc12)C(Cl)(Cl)Cl [Salubrinal] + CC(=O)Nc1cccc(-n2c(=O)n(C3CC3)c(=O)c3c(Nc4ccc(I)cc4F)n(C)c(=O)c(C)c32)c1 [Trametinib] (partner 0.02 µM)
Summary of the method: (§1)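 Nuclei were stained with Hoechst during a one-step fixation (final 0.05% Triton X-100, 1% formaldehyde, 1 ug/ml Hoechst) carried out 5 days after dosing, then counted on 4× images. The cells, lung cancer lines in 1536-well plates, had been dosed by pin tool the day after seeding with one drug alone or a fixed anchor-drug dose plus five library-drug doses (not always all listed) in √10 steps. Relative viability is the nuclei count in treated wells divided by that in vehicle wells, and each value is the median of duplicate plates.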

[1] = compound: Cc1ccc2nc(NCCN)c3ncc(C)n3c2c1 + Cc1nc(Nc2ncc(C(=O)Nc3c(C)cccc3Cl)s2)cc(N2CCN(CCO)CC2)n1 [Dasatinib] (partner 0.075 µM)
Summary of the method: as §1

[2] = compound: Cc1ccc2nc(NCCN)c3ncc(C)n3c2c1 + CC(C)C[C@H](NC(=O)[C@H](Cc1ccccc1)NC(=O)c1cnccn1)B(O)O [Bortezomib] (partner 0.002 µM)
Summary of the method: as §1

Salubrinal + Foretinib = compound: O=C(/C=C/c1ccccc1)NC(NC(=S)Nc1cccc2cccnc12)C(Cl)(Cl)Cl [Salubrinal] + COc1cc2c(Oc3ccc(NC(=O)C4(C(=O)Nc5ccc(F)cc5)CC4)cc3F)ccnc2cc1OCCCN1CCOCC1 [Foretinib] (partner 0.25 µM)
Summary of the method: as §1

Row | Cell Line | relative viability (Salubrinal + Trametinib; first compound 0.08 µM) | relative viability (Salubrinal + Trametinib; first compound 0.253 µM) | relative viability (Salubrinal + Trametinib; first compound 0.8 µM) | relative viability (Salubrinal + Trametinib; first compound 2.53 µM) | relative viability (Salubrinal + Trametinib; first compound 8 µM) | relative viability ([1]; first compound 0.04 µM) | relative viability ([1]; first compound 0.1265 µM) | relative viability ([1]; first compound 0.4 µM) | relative viability ([1]; first compound 1.265 µM) | relative viability ([1]; first compound 4 µM) | relative viability ([2]; first compound 0.04 µM) | relative viability ([2]; first compound 0.1265 µM) | relative viability ([2]; first compound 0.4 µM) | relative viability ([2]; first compound 1.265 µM) | relative viability ([2]; first compound 4 µM) | relative viability (Salubrinal + Foretinib; first compound 0.08 µM) | relative viability (Salubrinal + Foretinib; first compound 0.253 µM) | relative viability (Salubrinal + Foretinib; first compound 0.8 µM) | relative viability (Salubrinal + Foretinib; first compound 2.53 µM) | relative viability (Salubrinal + Foretinib; first compound 8 µM)
1 | NCI-H838 | 0.657 | 0.678 | 0.534 | 0.518 | 0.552 | 0.347 | 0.336 | 0.251 | 0.231 | 0.261 | 0.878 | 0.9 | 0.615 | 0.631 | 0.739 | 1.13 | 1.11 | 1.06 | 1.02 | 1.06
2 | NCI-H1755 | 0.847 | 0.803 | 0.829 | 0.765 | 0.716 | 0.475 | 0.423 | 0.445 | 0.359 | 0.393 | 1.02 | 0.99 | 0.897 | 0.956 | 1.02 | 0.95 | 0.928 | 0.897 | 0.911 | 0.937
3 | HCC-78 | 0.869 | 0.692 | 0.652 | 0.791 | 0.686 | 0.425 | 0.496 | 0.364 | 0.354 | 0.303 | 0.52 | 0.424 | 0.365 | – | 0.444 | 0.597 | 0.561 | 0.584 | 0.649 | 0.551
4 | IA-LM | – | – | – | – | – | – | – | – | – | – | 0.895 | 0.94 | 0.844 | 0.696 | 0.66 | 1.21 | 0.764 | 1.17 | 1.12 | 0.775
5 | NCI-H322M | 0.542 | 0.517 | 0.487 | 0.565 | 0.521 | 0.251 | 0.267 | 0.259 | 0.269 | 0.263 | 1.29 | 1.1 | 1.24 | 1.18 | 1.27 | 1.07 | 1.07 | 0.969 | 0.832 | 0.856
6 | NCI-H3122 | 0.259 | 0.239 | 0.282 | 0.226 | 0.226 | 0.78 | 0.901 | 0.707 | 1.02 | 0.869 | 0.957 | 1.03 | 1.05 | 0.985 | 1.1 | 1.07 | 0.924 | 1.03 | 0.986 | 0.964
7 | COR-L23 | 0.7 | 0.734 | 0.736 | 0.581 | 0.518 | 0.525 | 0.514 | 0.518 | 0.46 | 0.403 | 1.07 | 0.913 | 0.928 | 0.989 | 0.91 | 1.1 | 0.932 | 1.13 | 1.01 | 0.889
8 | NCI-H1623 | – | – | – | – | – | 0.525 | 0.664 | 0.523 | 0.482 | 0.494 | – | – | – | – | – | 0.735 | 0.787 | 0.891 | 0.824 | 0.888
9 | NCI-H1792 | 0.533 | – | 0.524 | 0.374 | 0.631 | 0.741 | 0.624 | 0.816 | 0.704 | 0.382 | 0.963 | 0.915 | 0.912 | 0.94 | 0.968 | – | – | – | – | –
10 | NCI-H522 | 0.631 | 0.802 | 0.639 | 0.859 | 0.709 | 0.882 | 0.966 | 0.827 | 0.806 | 0.842 | – | – | – | – | – | – | – | – | – | –
11 | NCI-H1299 | – | – | – | – | – | – | – | – | – | – | 1 | 0.993 | 1.01 | 1.05 | 0.972 | 1.12 | 1.07 | 1.14 | 1.05 | 1.05
12 | SW 900 | 0.69 | 0.765 | 0.7 | 0.774 | 1 | 0.419 | 0.759 | – | 0.459 | 0.408 | – | – | – | – | – | 0.78 | – | 0.806 | 0.698 | 0.659
13 | NCI-H2170 | 1.1 | 0.658 | 0.979 | 0.941 | 0.925 | 0.565 | 0.646 | 0.58 | 0.58 | 0.564 | – | – | – | – | – | 1.14 | 0.808 | 1.07 | 1.04 | 0.888
14 | NCI-H358 | 0.145 | 0.139 | 0.135 | 0.143 | 0.136 | 0.177 | 0.157 | 0.182 | 0.154 | 0.22 | – | – | – | – | – | 0.783 | 0.597 | 0.718 | 0.71 | 0.606
15 | SK-MES-1 | 0.634 | 0.526 | 0.512 | 0.561 | 0.525 | 0.489 | 0.339 | 0.392 | 0.35 | 0.305 | – | – | – | – | – | 1.08 | 0.85 | 1.04 | 1.12 | 0.713
16 | LK-2 | 0.918 | 0.812 | 0.819 | 0.722 | 0.744 | 0.251 | 0.223 | 0.27 | 0.229 | 0.268 | – | – | – | – | – | 0.983 | 1.18 | 1.6 | 1.24 | 1.09
17 | NCI-H1395 | 1.15 | 1.15 | 1.18 | 0.972 | 1.02 | 0.48 | 0.425 | 0.374 | 0.37 | 0.407 | – | – | – | – | – | 0.993 | 1.1 | 0.938 | 0.92 | 1.08
18 | A549 | – | – | – | – | – | – | – | – | – | – | – | – | – | – | – | 1.01 | 0.753 | 0.932 | 0.861 | 0.892
19 | NCI-H1793 | 0.484 | 0.437 | 0.402 | 0.42 | 0.304 | 0.386 | 0.417 | 0.389 | 0.332 | 0.384 | – | – | – | – | – | 0.879 | 0.645 | 0.754 | 0.595 | 0.508
20 | NCI-H1563 | – | – | – | – | – | 0.459 | 0.488 | 0.539 | 0.433 | 0.454 | 0.859 | 0.757 | 0.875 | 0.968 | 1.05 | 0.952 | 0.919 | 0.903 | 0.929 | 0.866
21 | ABC-1 | – | – | – | – | – | 0.613 | 0.573 | 0.501 | 0.57 | 0.594 | 0.402 | 0.223 | 0.337 | 0.282 | 0.263 | 1.15 | 1.05 | 0.972 | 0.993 | 0.886

— the supplement of paper PMC10307832
